{"source": "patent US12642783B2", "about": "“Method for treating vaso occlusive crises associated with Sickle cell disease” (Nicox SA, priority 2020, dated 2026)", "molecules": {"B1": {"name": "crizanlizumab-tmca (antibody, chains of the INN, looked up, V domains shown)", "VH": "QVQLVQSGAEVKKPGASVKVSCKVSGYTFTSYDINWVRQAPGKGLEWMGWIYPGDGSIKYNEKFKGRVTMTVDKSTDTAYMELSSLRSEDTAVYYCARRGEYGNYEGAMDYWGQGTLVTVSS", "VL": "DIQMTQSPSSLSASVGDRVTITCKASQSVDYDGHSYMNWYQQKPGKAPKLLIYAASNLESGVPSRFSGSGSGTDFTLTISSLQPEDFATYYCQQSDENPLTFGGGTKVEIK", "notes": "FDA-approved drug for vaso-occlusive crises complication in sickle cell disease"}}, "key": {"vaso-occlusive crises": {"tested_on": "vaso-occlusive crises", "conditions": "sickle cell disease; cited from earlier work"}, "blood pressure": {"tested_on": "blood pressure", "conditions": "3 pivotal trials, 2,734 patients with osteoarthritis of the hip or knee; cited from earlier work"}, "Nitrite": {"tested_on": "Nitrite", "test": "Plasma nitrite levels after intravenous administration in Sickle Cell mouse model (thrombin challenge)", "assay_type": "in vivo", "conditions": "Homozygous Sickle Cell transgenic mice, 15 mg/kg intravenous, at one hour after thrombin (FIG. 1)", "description": "(§1) This trial was conducted to assess the efficacy of 4-(nitrooxy)butyl-(2S)-2-(6-methoxy-2-naphthyl) propanoate (naproxcinod) to increase Nitrite (a precursor to NO), and cGMP in Homozygous Townes Sickle Cell transgenic mice.\n(§2) Homozygous Sickle Cell transgenic mice were treated with either 4-(nitrooxy)butyl-(2S)-2-(6-methoxy-2-naphthyl) propanoate (naproxcinod) (15 mg/kg) or naproxen (15 mg/kg—as a control) or saline (as a vehicle control) by intravenous injection. After one hour, the mice were injected with thrombin (1 u/20 g) to induce platelet activation. Blood was drawn at […] after thrombin administration. Plasma nitrite levels were measured as a marker of nitric oxide bioavailability. cGMP levels were measured after addition of IBMX (3-Isobutyl-1-methylxanthine) (100 uM) to prevent cGMP degradation. Platelets were isolated and activation measured by surface expression of p-selectin."}, "[1]": {"tested_on": "osteoarthritis (OA) of the knee", "conditions": "human studies, OA of the knee patients; cited from earlier work"}, "cGMP": {"tested_on": "cGMP", "test": "cGMP levels after intravenous administration in Sickle Cell mouse model (thrombin challenge)", "assay_type": "in vivo, mice", "conditions": "for cGMP levels compared to thrombin alone or naproxen administration: Homozygous Sickle Cell transgenic mice, 15 mg/kg intravenous, p<0.01 (FIG. 2)", "description": "as §1, §2"}, "[2]": {"conditions": "approved package insert (Novartis, 2019); cited from earlier work"}}, "data": [{"molecule": "NC(=O)CC[C@H](N)C(=O)O", "note": "[Endari, L-glutamine]", "values": [{"measurement": "frequency of vaso-occlusive crises", "setting": "vaso-occlusive crises", "result": "reduce the frequency"}]}, {"molecule": "NC(=O)NO", "note": "[Droxia, hydroxyurea]", "values": [{"measurement": "frequency of vaso-occlusive crises", "setting": "vaso-occlusive crises", "result": "reduce the frequency"}]}, {"molecule": "COc1ccc2cc([C@H](C)C(=O)OCCCCO[N+](=O)[O-])ccc2c1", "note": "[naproxcinod, 4-(nitrooxy)butyl-(2S)-2-(6-methoxy-2-naphthyl) propanoate]", "values": [{"measurement": "hypertensive burden induced by most NSAIDs", "setting": "blood pressure", "result": "reduce some of the hypertensive burden"}, {"measurement": "nitrite concentration compared to thrombin alone or naproxen administration", "setting": "Nitrite", "result": "statistically greater"}, {"measurement": "management of the signs and symptoms of OA", "setting": "[1]", "result": "clinical efficacy and safety"}, {"measurement": "cGMP levels compared to thrombin alone or naproxen administration", "setting": "cGMP; at 30 minutes after thrombin", "result": "significantly increased"}, {"measurement": "cGMP levels compared to thrombin alone or naproxen administration", "setting": "cGMP; at 60 minutes after thrombin", "result": "significantly increased"}, {"measurement": "cyclic guanosine monophosphate level (cGMP level)", "setting": "cGMP; Sickle cell animal model, summary statement", "result": "able to increase"}]}, {"molecule": "B1", "values": [{"measurement": "incidence rate of arthralgia", "setting": "[2]", "result": 18, "unit": "%"}, {"measurement": "incidence rate of back pain", "setting": "[2]", "result": 15, "unit": "%"}, {"measurement": "frequency of vaso-occlusive crises", "setting": "vaso-occlusive crises", "result": "reduce the frequency"}]}]}
